Measurements: PMC3474771, “Evaluation of 14 Organic Solvents and Carriers for Screening Applications in Zebrafish Embryos and Larvae” (PLoS ONE, 2012)
Like-named read-outs stand apart in the source and are kept apart here.

Experiments:
[1] = test system: zebrafish embryos and larvae; conditions: for Maximum-tolerated concentration (MTC): highest concentration with no phenotypic abnormalities, followed to 9 dpf
Procedure: Zebrafish embryos of the AB wild-type strain (originally obtained from the Zebrafish International Resource Center, Eugene, Oregon, USA) were raised at 28°C. Zebrafish husbandry, embryo collection, and embryo and larva maintenance were performed as described, [21]. Toxicity assays were standardly performed in 24-well microtiter plates (wrapped with Parafilm to limit solvent evaporation) using 10 embryos per well in 1 ml of 0.3× Danieau's medium (17 mM NaCl, 2 mM KCl, 0.12 mM MgSO4, 1.8 mM Ca(NO3)2 and 1.5 mM HEPES, pH 7.6). Each experiment was repeated 3 times for a total of 30 embryos or larvae analyzed per solvent per developmental staged tested. Data were only recorded for experiments in which the percentage of normal embryos or larvae in the control group was at least 90%. […] In determining the maximum tolerated concentration (MTC) for each solvent and carrier, all post-exposure embryos and larvae were allowed to develop in larva medium to 9 dpf, so as to detect any deleterious effects appearing after this 24-hour window. Solvents and carriers were obtained from the following suppliers: acetone (Chemlab, Zedelgem, Belgium), acetonitrile (Acros Organics, Geel, Belgium), albumin (BSA, Sigma-Aldrich, Bornem, Belgium), butanone (Riedel-de Haën, Seelze, Germany), cyclodextrin (2- hydroxypropyl-beta-cyclodextrin, Sigma-Aldrich), dimethyl formamide (Acros), DMSO (Agros), ethanol (Fisher Scientific, Doornik, Belgium), glycerol (Acros), isopropanol (Chemlab), methanol (Chemlab), polyethylene glycol-400 (Fluka, Bornem, Belgium), propylene glycol (Certa, Eigenbrakel, Belgium), solketal (Merck, Overijse, Belgium). Statistical analyses were done using chi-square in Microsoft Excel.
Twelve solvents and 2 carriers – chosen based solely on their potential utility for the solubilization and delivery of a structurally diverse range of small molecules – were analyzed for their effects on zebrafish embryos and larvae. The solvents included acetone, acetonitrile, butanone, dimethyl formamide, DMSO, ethanol, glycerol, isopropanol, methanol, polyethylene glycol (PEG-400), propylene glycol, and solketal, and the carriers included albumin (BSA) and cyclodextrin (2-hydroxypropyl-beta-cyclodextrin, or HPBCD). […] For this initial study, the effects of a 24-hour exposure to each solvent and carrier was analyzed using embryos and larvae at the following developmental stages: 2–4 cell, 4 hours-post fertilization (hpf), and 1, 2, 3, 4, and 7 days post-fertilization (dpf).

zebrafish = test system: zebrafish; set-up: method as in PMID 18646521; conditions: 0.01% acetone; cited from earlier work
rat embryos = conditions: cited from earlier work
zebrafish embryos = test system: zebrafish embryos; set-up: method as in PMID 16125774; conditions: 2% DMSO; cited from earlier work
[2] = exposure for 24 hours beginning at 1 dpf
[3] = exposure for 24 hours beginning at 2 dpf
[4] = exposure for 24 hours beginning at 2–4 cell stage
[5] = exposure for 24 hours beginning at 3 dpf
[6] = exposure for 24 hours beginning at 4 dpf
[7] = exposure for 24 hours beginning at 4 hpf
[8] = exposure for 24 hours beginning at 5 dpf
[9] = exposure for 24 hours beginning at 7 dpf
[10] = exposure from 1 dpf, at the concentration in parentheses
[11] = exposure from 3 dpf, at the concentration in parentheses
[12] = exposure from 4 dpf, at the concentration in parentheses
[13] = exposure from 5 dpf, at the concentration in parentheses
[14] = exposure from 7 dpf, at the concentration in parentheses
[15] = 24 hours exposure from 2–4 cell stage

## CC(C)=O [Acetone, acetone]
[1]; 24 hours exposure from 7 dpf
  Lowest concentration at which an average penetrance of at least 50% was observed for the phenotypic effects: 0.5%
[1]; [2]
  Maximum-tolerated concentration (MTC): 1.5%
[1]; [3]
  Maximum-tolerated concentration (MTC): 1.5%
[1]; [4]
  Maximum-tolerated concentration (MTC): 2%
[1]; [5]
  Maximum-tolerated concentration (MTC): ≥2.5%
[1]; exposure for 24 hours beginning at 3 dpf, listed as acetone
  Maximum-tolerated concentration (MTC): ≥ 2.5%
[1]; [6]
  Maximum-tolerated concentration (MTC): 1.5%
[1]; [7]
  Maximum-tolerated concentration (MTC): 2%
[1]; [8]
  Maximum-tolerated concentration (MTC): <0.5%
[1]; [9]
  Maximum-tolerated concentration (MTC): <0.5%
zebrafish
  Toxicity of negative controls with solvent: no signs of toxicity

## CC#N [Acetonitrile, acetonitrile]
[1]; 0.5% (lowest concentration examined), after 24 hours of exposure
  Effect on cleavage-stage embryos: completely lethal
[1]; 24 hours exposure from 1 dpf
  Lowest concentration at which an average penetrance of at least 50% was observed for the phenotypic effects: 2.5%
[1]; 24 hours exposure from 2 dpf
  Lowest concentration at which an average penetrance of at least 50% was observed for the phenotypic effects: 1.5%
[1]; 24 hours exposure from 3 dpf
  Lowest concentration at which an average penetrance of at least 50% was observed for the phenotypic effects: 1.5%
[1]; 24 hours exposure from 4 dpf
  Lowest concentration at which an average penetrance of at least 50% was observed for the phenotypic effects: 1.5%
[1]; 24 hours exposure from 4 hpf
  Lowest concentration at which an average penetrance of at least 50% was observed for the phenotypic effects: 1.5%
[1]; 24 hours exposure from 5 dpf
  Lowest concentration at which an average penetrance of at least 50% was observed for the phenotypic effects: 1%
[1]; 24 hours exposure from 7 dpf
  Lowest concentration at which an average penetrance of at least 50% was observed for the phenotypic effects: 0.5%
[1]; [2]
  Maximum-tolerated concentration (MTC): 1%
[1]; [4]
  Maximum-tolerated concentration (MTC): <0.5%
[1]; [5]
  Maximum-tolerated concentration (MTC): 1%
[1]; [10]
  Phenotypic effects above MTC after 24 hours (average penetrance at least 50%): DD PE
[1]; [11]
  Phenotypic effects above MTC after 24 hours (average penetrance at least 50%): PE SB
[1]; [12]
  Phenotypic effects above MTC after 24 hours (average penetrance at least 50%): IC PE
[1]; exposure from 4 hpf, at the concentration in parentheses
  Phenotypic effects above MTC after 24 hours (average penetrance at least 50%): AP IC IP NO SO
[1]; [13]
  Phenotypic effects above MTC after 24 hours (average penetrance at least 50%): IC PE
[1]; [14]
  Phenotypic effects above MTC after 24 hours (average penetrance at least 50%): IC PE
Rat embryos
  Minimum embryotoxic concentration: 40 mM

## C[S+](C)[O-] [Dimethyl sulfoxide (DMSO), Dimethyl sulfoxide]
[1]; 24 hours exposure from 3 dpf
  Lowest concentration at which an average penetrance of at least 50% was observed for the phenotypic effects: 2.5%
[1]; 24 hours exposure from 5 dpf
  Lowest concentration at which an average penetrance of at least 50% was observed for the phenotypic effects: 2.5%
[1]; 24 hours exposure from 7 dpf
  Lowest concentration at which an average penetrance of at least 50% was observed for the phenotypic effects: 2%
[1]; BSA: intermediate stages, DMSO: embryos, glycerol: younger larvae and embryos
  MTC / tolerated concentration as summarised in the text for a subset of stages: at least 2.5%
[1]; [2]
  Maximum-tolerated concentration (MTC): 2%
[1]; [3]
  Maximum-tolerated concentration (MTC): 2%
[1]; [4]
  Maximum-tolerated concentration (MTC): >2.5%
[1]; [5]
  Maximum-tolerated concentration (MTC): 1.5%
[1]; [6]
  Maximum-tolerated concentration (MTC): 2%
[1]; [7]
  Maximum-tolerated concentration (MTC): >2.5%
[1]; [8]
  Maximum-tolerated concentration (MTC): 2%
[1]; [9]
  Maximum-tolerated concentration (MTC): 1.5%
[1]; [11]
  Phenotypic effects above MTC after 24 hours (average penetrance at least 50%): NB SB
[1]; [13]
  Phenotypic effects above MTC after 24 hours (average penetrance at least 50%): GG IC IM LP
[1]; [14]
  Phenotypic effects above MTC after 24 hours (average penetrance at least 50%): NB LP
[1]; larvae
  Levels at which abnormalities or lethality begin in at least a subset of treated animals: 2–2.5%
Zebrafish embryos
  Adverse effects at maximum concentration tested: no adverse effects

## CO [Methanol, methanol]
[1]; [15]
  Lowest concentration at which an average penetrance of at least 50% was observed for the phenotypic effects: 2%
[1]; 24 hours exposure from 3 dpf
  Lowest concentration at which an average penetrance of at least 50% was observed for the phenotypic effects: 2.5%
[1]; 24 hours exposure from 4 hpf
  Lowest concentration at which an average penetrance of at least 50% was observed for the phenotypic effects: 2%
[1]; 24 hours exposure from 7 dpf
  Lowest concentration at which an average penetrance of at least 50% was observed for the phenotypic effects: 2.5%
[1]; [2]
  Maximum-tolerated concentration (MTC): 1.5%
[1]; [3]
  Maximum-tolerated concentration (MTC): >2.5%
[1]; [4]
  Maximum-tolerated concentration (MTC): 1.5%
[1]; [5]
  Maximum-tolerated concentration (MTC): 2%
[1]; [6]
  Maximum-tolerated concentration (MTC): 1%
[1]; [7]
  Maximum-tolerated concentration (MTC): 1.5%
[1]; [8]
  Maximum-tolerated concentration (MTC): >2.5%
[1]; [9]
  Maximum-tolerated concentration (MTC): 2%
[1]; in vivo
  Phenotypic effects above MTC after 24 hours (average penetrance at least 50%): NB LP

## CC1(C)OCC(CO)O1 (stereo not drawn) [Solketal]
[1]; 24 hours exposure from 1 dpf
  Lowest concentration at which an average penetrance of at least 50% was observed for the phenotypic effects: 1%
[1]; 24 hours exposure from 2 dpf
  Lowest concentration at which an average penetrance of at least 50% was observed for the phenotypic effects: 1%
[1]; 24 hours exposure from 3 dpf
  Lowest concentration at which an average penetrance of at least 50% was observed for the phenotypic effects: 1%
[1]; 24 hours exposure from 4 dpf
  Lowest concentration at which an average penetrance of at least 50% was observed for the phenotypic effects: 0.5%
[1]; 24 hours exposure from 4 hpf
  Lowest concentration at which an average penetrance of at least 50% was observed for the phenotypic effects: 1%
[1]; 24 hours exposure from 5 dpf
  Lowest concentration at which an average penetrance of at least 50% was observed for the phenotypic effects: 0.5%
[1]; 24 hours exposure from 7 dpf
  Lowest concentration at which an average penetrance of at least 50% was observed for the phenotypic effects: 0.5%
[1]; [2]
  Maximum-tolerated concentration (MTC): 0.5%
[1]; [3]
  Maximum-tolerated concentration (MTC): 0.5%
[1]; [4]
  Maximum-tolerated concentration (MTC): <0.5%
[1]; exposure for 24 hours beginning at 2–4 cell stage, listed as solketal
  Maximum-tolerated concentration (MTC): < 0.5%
[1]; [5]
  Maximum-tolerated concentration (MTC): 0.5%
[1]; [6]
  Maximum-tolerated concentration (MTC): <0.5%
[1]; [7]
  Maximum-tolerated concentration (MTC): 0.5%
[1]; [8]
  Maximum-tolerated concentration (MTC): <0.5%
[1]; [9]
  Maximum-tolerated concentration (MTC): <0.5%
[1]; [10]
  Phenotypic effects above MTC after 24 hours (average penetrance at least 50%): AP BH IC IM NB PE
[1]; exposure from 2 dpf, at the concentration in parentheses
  Phenotypic effects above MTC after 24 hours (average penetrance at least 50%): AP BH IC PE
[1]; [11]
  Phenotypic effects above MTC after 24 hours (average penetrance at least 50%): AH IC IM HJ PE
[1]; [12]
  Phenotypic effects above MTC after 24 hours (average penetrance at least 50%): BC LP
[1]; [13]
  Phenotypic effects above MTC after 24 hours (average penetrance at least 50%): NB LP SB+
[1]; [14]
  Phenotypic effects above MTC after 24 hours (average penetrance at least 50%): NB LP

## Albumin (BSA): bovine serum albumin (BSA), carrier
[1]; 0.5% from 4-cell stage, embryos at 1 dpf, morphologically normal
  Delay in development relative to control: up to 9 hours
[1]; [15]
  Lowest concentration at which an average penetrance of at least 50% was observed for the phenotypic effects: 0.5%
[1]; 24 hours exposure from 3 dpf
  Lowest concentration at which an average penetrance of at least 50% was observed for the phenotypic effects: 1.5%
[1]; 24 hours exposure from 4 dpf
  Lowest concentration at which an average penetrance of at least 50% was observed for the phenotypic effects: 1.5%
[1]; 24 hours exposure from 4 hpf
  Lowest concentration at which an average penetrance of at least 50% was observed for the phenotypic effects: 0.5%
[1]; [2]
  Maximum-tolerated concentration (MTC): <0.5%
[1]; [3]
  Maximum-tolerated concentration (MTC): 0.5%
[1]; [4]
  Maximum-tolerated concentration (MTC): <0.5%
[1]; [5]
  Maximum-tolerated concentration (MTC): 0.5%
[1]; [7]
  Maximum-tolerated concentration (MTC): <0.5%
[1]; [8]
  Maximum-tolerated concentration (MTC): ≥2.5%
[1]; exposure for 24 hours beginning at 5 dpf, listed as BSA
  Maximum-tolerated concentration (MTC): ≥ 2.5%
[1]; [9]
  Maximum-tolerated concentration (MTC): ≥2.5%
[1]; exposure for 24 hours beginning at 7 dpf, listed as BSA
  Maximum-tolerated concentration (MTC): ≥ 2.5%
[1]; [12]
  Phenotypic effects above MTC after 24 hours (average penetrance at least 50%): IC PE
